In PMC3476947 (Journal of medicinal chemistry, 2012):

What was measured:
[1] = system: MBHA DNA substrate (25 base-pair); experiment: Fluorescent intercalator displacement; format: binding; conditions: 1.5 μM compound, FID counterscreen
[2] = target: T1, HCV NS3 helicase (NS3h_1b(con1)) (Hepatitis C virus genotype 1b, UniProt Q9WMX2); experiment: biochemical
[3] = target: T1, HCV NS3 helicase (NS3h_1b(con1)); experiment: MBHA with RNA substrate; format: biochemical; conditions: data not shown

T1 sequence (Q9WMX2 1192-1657): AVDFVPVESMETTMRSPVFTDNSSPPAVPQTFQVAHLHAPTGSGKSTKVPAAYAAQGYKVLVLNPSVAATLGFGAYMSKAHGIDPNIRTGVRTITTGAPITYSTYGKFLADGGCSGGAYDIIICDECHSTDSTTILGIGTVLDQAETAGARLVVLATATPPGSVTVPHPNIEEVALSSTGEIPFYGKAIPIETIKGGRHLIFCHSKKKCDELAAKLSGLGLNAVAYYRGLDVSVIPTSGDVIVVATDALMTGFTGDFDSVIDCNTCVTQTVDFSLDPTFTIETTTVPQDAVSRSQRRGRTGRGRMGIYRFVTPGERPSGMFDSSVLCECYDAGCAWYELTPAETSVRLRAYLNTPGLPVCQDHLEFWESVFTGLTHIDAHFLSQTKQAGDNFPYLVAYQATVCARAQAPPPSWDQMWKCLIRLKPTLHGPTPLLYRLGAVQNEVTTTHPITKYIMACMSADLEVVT

## [Cl][Cd][Cl] [CdCl2]
[1]
  decrease of fluorescence of DNA-bound ethidium bromide: less than 8%

## Cc1c2ccncc2c(C)c2c1[nH]c1ccccc12 [ellipticine]
[1]
  decrease of fluorescence of DNA-bound ethidium bromide: less than 8%

## Cc1ccc2c(c1)sc(-c1ccc(N(C)C)cc1)[n+]2C.[Cl-] [thioflavine T]
[2]; MBHA, up to 100 μM
  effect on HCV helicase-catalyzed DNA unwinding: no effect
[3]
  effect on HCV helicase-catalyzed RNA unwinding: no effect

## CO[C@@H]1[C@H](O)C[C@@H](O[C@@H]2C[C@H](Oc3cc4cc5c(c(O)c4c(O)c3C)C(=O)[C@@H](O[C@H]3C[C@@H](O[C@H]4C[C@@H](O[C@H]6C[C@](C)(O)[C@@H](OC(C)=O)[C@H](C)O6)[C@H](O)[C@@H](C)O4)[C@H](O)[C@@H](C)O3)[C@H]([C@H](OC)C(=O)[C@@H](O)[C@@H](C)O)C5)O[C@H](C)[C@@H]2OC(C)=O)O[C@@H]1C [Chromomycin A3]
[2]
  IC50: 150 ± 30 nM
[3]
  effect on HCV helicase-catalyzed RNA unwinding: no effect
